Experimental data reported in PubChem BioAssay (NCI).
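Dose response: 5 concentrations. Exposure: 48 h. Format: 96-well plates. Endpoint: linear interpolation; highest concentration if not reached. TGI: concentration producing complete growth inhibition.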

How the values were obtained:
Experiment in all cases: NCI tumour cell line growth inhibition, 48 h
UO-31 renal = tested on: UO-31 renal
TK-10 renal = tested on: TK-10 renal
UACC-62 melanoma = tested on: UACC-62 melanoma
K-562 leukemia = tested on: K-562 leukemia
SN12C renal = tested on: SN12C renal
SF-539 CNS = tested on: SF-539 CNS
DMS 273 small cell lung = tested on: DMS 273 small cell lung
LXFL 529 NSCLC = tested on: LXFL 529 NSCLC
HL-60(TB) leukemia = tested on: HL-60(TB) leukemia
HT29 colon = tested on: HT29 colon
IGROV1 ovarian = tested on: IGROV1 ovarian
SK-OV-3 ovarian = tested on: SK-OV-3 ovarian
A549 NSCLC = tested on: A549 NSCLC
SW-620 colon = tested on: SW-620 colon
OVCAR-5 ovarian = tested on: OVCAR-5 ovarian
HOP-18 NSCLC = tested on: HOP-18 NSCLC
RPMI-8226 leukemia = tested on: RPMI-8226 leukemia
DLD-1 colon = tested on: DLD-1 colon
XF 498 CNS = tested on: XF 498 CNS
EKVX NSCLC = tested on: EKVX NSCLC
SF-268 CNS = tested on: SF-268 CNS
NCI-H23 lung = tested on: NCI-H23 lung
M14 melanoma = tested on: M14 melanoma
OVCAR-8 ovarian = tested on: OVCAR-8 ovarian
UACC-257 melanoma = tested on: UACC-257 melanoma
ACHN renal = tested on: ACHN renal
786-0 renal = tested on: 786-0 renal
U251 CNS = tested on: U251 CNS
DMS 114 small cell lung = tested on: DMS 114 small cell lung
NCI-H460 lung = tested on: NCI-H460 lung
OVCAR-4 ovarian = tested on: OVCAR-4 ovarian
OVCAR-3 ovarian = tested on: OVCAR-3 ovarian
MALME-3M melanoma = tested on: MALME-3M melanoma
KM12 colon = tested on: KM12 colon
SK-MEL-2 melanoma = tested on: SK-MEL-2 melanoma
CCRF-CEM leukemia = tested on: CCRF-CEM leukemia
SNB-78 CNS = tested on: SNB-78 CNS
LOX IMVI melanoma = tested on: LOX IMVI melanoma
HCT-15 colon = tested on: HCT-15 colon
NCI-H226 lung = tested on: NCI-H226 lung
SK-MEL-28 melanoma = tested on: SK-MEL-28 melanoma
A498 renal = tested on: A498 renal
COLO 205 colon = tested on: COLO 205 colon
HOP-62 NSCLC = tested on: HOP-62 NSCLC
SF-295 CNS = tested on: SF-295 CNS
NCI-H522 lung = tested on: NCI-H522 lung
MOLT-4 leukemia = tested on: MOLT-4 leukemia
KM20L2 colon = tested on: KM20L2 colon
HCC-2998 colon = tested on: HCC-2998 colon
HCT-116 colon = tested on: HCT-116 colon
SNB-19 CNS = tested on: SNB-19 CNS
CAKI-1 renal = tested on: CAKI-1 renal
M19-MEL melanoma = tested on: M19-MEL melanoma
RXF 393 renal = tested on: RXF 393 renal
SR leukemia = tested on: SR leukemia
SK-MEL-5 melanoma = tested on: SK-MEL-5 melanoma
HOP-92 NSCLC = tested on: HOP-92 NSCLC
SNB-75 CNS = tested on: SNB-75 CNS

**Q.** For COC(=O)C1=C(C)N(NC(=O)c2ccccc2)C(C)(O)C12CCOC2=O (stereo not given), which TGI (UO-31 renal) is on record?
**A.** > 100 µM

**Q.** What about the TGI (TK-10 renal) of the same compound?
**A.** > 100 µM

**Q.** And the TGI (UACC-62 melanoma)?
**A.** > 100 µM

**Q.** And the TGI (K-562 leukemia)?
**A.** > 100 µM

**Q.** What about the TGI (SN12C renal) of the same compound?
**A.** > 100 µM

**Q.** What about the TGI (SF-539 CNS) of the same compound?
**A.** > 100 µM

**Q.** And the TGI (DMS 273 small cell lung)?
**A.** > 100 µM

**Q.** And the TGI (LXFL 529 NSCLC)?
**A.** > 100 µM

**Q.** What about the TGI (HL-60(TB) leukemia) of the same compound?
**A.** > 100 µM

**Q.** And the TGI (HT29 colon)?
**A.** > 100 µM

**Q.** And the TGI (IGROV1 ovarian)?
**A.** > 100 µM

**Q.** And the TGI (SK-OV-3 ovarian)?
**A.** > 100 µM

**Q.** And the TGI (A549 NSCLC)?
**A.** > 100 µM

**Q.** What about the TGI (SW-620 colon) of the same compound?
**A.** > 100 µM

**Q.** What about the TGI (OVCAR-5 ovarian) of the same compound?
**A.** > 100 µM

**Q.** And the TGI (HOP-18 NSCLC)?
**A.** > 100 µM

**Q.** What about the TGI (RPMI-8226 leukemia) of the same compound?
**A.** > 100 µM

**Q.** And the TGI (DLD-1 colon)?
**A.** > 100 µM

**Q.** And the TGI (XF 498 CNS)?
**A.** > 100 µM

**Q.** What about the TGI (EKVX NSCLC) of the same compound?
**A.** > 100 µM

**Q.** What about the TGI (SF-268 CNS) of the same compound?
**A.** > 100 µM

**Q.** And the TGI (NCI-H23 lung)?
**A.** > 100 µM

**Q.** What about the TGI (M14 melanoma) of the same compound?
**A.** > 100 µM

**Q.** And the TGI (OVCAR-8 ovarian)?
**A.** > 100 µM

**Q.** And the TGI (UACC-257 melanoma)?
**A.** > 100 µM

**Q.** What about the TGI (ACHN renal) of the same compound?
**A.** > 100 µM

**Q.** And the TGI (786-0 renal)?
**A.** 2.68 µM

**Q.** What about the TGI (U251 CNS) of the same compound?
**A.** > 100 µM

**Q.** And the TGI (DMS 114 small cell lung)?
**A.** > 100 µM

**Q.** And the TGI (NCI-H460 lung)?
**A.** > 100 µM

**Q.** What about the TGI (OVCAR-4 ovarian) of the same compound?
**A.** > 100 µM

**Q.** And the TGI (OVCAR-3 ovarian)?
**A.** > 100 µM

**Q.** And the TGI (MALME-3M melanoma)?
**A.** 1.86 µM

**Q.** What about the TGI (KM12 colon) of the same compound?
**A.** > 100 µM

**Q.** And the TGI (SK-MEL-2 melanoma)?
**A.** 2.41 µM

**Q.** And the TGI (CCRF-CEM leukemia)?
**A.** > 100 µM

**Q.** What about the TGI (SNB-78 CNS) of the same compound?
**A.** > 100 µM

**Q.** What about the TGI (LOX IMVI melanoma) of the same compound?
**A.** > 100 µM

**Q.** And the TGI (HCT-15 colon)?
**A.** > 100 µM

**Q.** What about the TGI (NCI-H226 lung) of the same compound?
**A.** > 100 µM

**Q.** What about the TGI (SK-MEL-28 melanoma) of the same compound?
**A.** > 100 µM

**Q.** What about the TGI (A498 renal) of the same compound?
**A.** > 100 µM

**Q.** And the TGI (COLO 205 colon)?
**A.** > 100 µM

**Q.** And the TGI (HOP-62 NSCLC)?
**A.** > 100 µM

**Q.** And the TGI (SF-295 CNS)?
**A.** > 100 µM

**Q.** And the TGI (NCI-H522 lung)?
**A.** > 100 µM

**Q.** What about the TGI (MOLT-4 leukemia) of the same compound?
**A.** > 100 µM

**Q.** And the TGI (KM20L2 colon)?
**A.** > 100 µM

**Q.** And the TGI (HCC-2998 colon)?
**A.** > 100 µM

**Q.** And the TGI (HCT-116 colon)?
**A.** > 100 µM

**Q.** What about the TGI (SNB-19 CNS) of the same compound?
**A.** > 100 µM

**Q.** What about the TGI (CAKI-1 renal) of the same compound?
**A.** > 100 µM

**Q.** For C=C(CCCCC)CN1CCCC1[C@@](C)(O)CC(=O)OCC (stereo not given in full), which TGI (UO-31 renal) is on record?
**A.** > 100 µM

**Q.** What about the TGI (TK-10 renal) of the same compound?
**A.** > 100 µM

**Q.** What about the TGI (UACC-62 melanoma) of the same compound?
**A.** > 100 µM

**Q.** And the TGI (K-562 leukemia)?
**A.** > 100 µM

**Q.** And the TGI (SN12C renal)?
**A.** > 100 µM

**Q.** And the TGI (SF-539 CNS)?
**A.** > 100 µM

**Q.** What about the TGI (DMS 273 small cell lung) of the same compound?
**A.** > 100 µM

**Q.** And the TGI (LXFL 529 NSCLC)?
**A.** > 100 µM

**Q.** What about the TGI (HL-60(TB) leukemia) of the same compound?
**A.** > 100 µM

**Q.** And the TGI (HT29 colon)?
**A.** > 100 µM

**Q.** And the TGI (IGROV1 ovarian)?
**A.** > 100 µM

**Q.** And the TGI (SK-OV-3 ovarian)?
**A.** > 100 µM

**Q.** What about the TGI (A549 NSCLC) of the same compound?
**A.** > 100 µM

**Q.** What about the TGI (M19-MEL melanoma) of the same compound?
**A.** > 100 µM

**Q.** What about the TGI (SW-620 colon) of the same compound?
**A.** > 100 µM

**Q.** And the TGI (RXF 393 renal)?
**A.** > 100 µM

**Q.** And the TGI (OVCAR-5 ovarian)?
**A.** > 100 µM

**Q.** What about the TGI (SR leukemia) of the same compound?
**A.** > 100 µM

**Q.** What about the TGI (HOP-18 NSCLC) of the same compound?
**A.** > 100 µM

**Q.** And the TGI (RPMI-8226 leukemia)?
**A.** > 100 µM

**Q.** What about the TGI (DLD-1 colon) of the same compound?
**A.** > 100 µM

**Q.** And the TGI (XF 498 CNS)?
**A.** > 100 µM

**Q.** What about the TGI (EKVX NSCLC) of the same compound?
**A.** > 100 µM

**Q.** And the TGI (SF-268 CNS)?
**A.** > 100 µM

**Q.** What about the TGI (NCI-H23 lung) of the same compound?
**A.** > 100 µM

**Q.** What about the TGI (M14 melanoma) of the same compound?
**A.** > 100 µM

**Q.** And the TGI (OVCAR-8 ovarian)?
**A.** > 100 µM

**Q.** And the TGI (UACC-257 melanoma)?
**A.** > 100 µM

**Q.** What about the TGI (SK-MEL-5 melanoma) of the same compound?
**A.** > 100 µM

**Q.** And the TGI (ACHN renal)?
**A.** > 100 µM

**Q.** What about the TGI (786-0 renal) of the same compound?
**A.** > 100 µM

**Q.** What about the TGI (U251 CNS) of the same compound?
**A.** > 100 µM

**Q.** What about the TGI (DMS 114 small cell lung) of the same compound?
**A.** > 100 µM

**Q.** What about the TGI (NCI-H460 lung) of the same compound?
**A.** > 100 µM

**Q.** And the TGI (OVCAR-4 ovarian)?
**A.** > 100 µM

**Q.** And the TGI (OVCAR-3 ovarian)?
**A.** > 100 µM

**Q.** And the TGI (MALME-3M melanoma)?
**A.** > 100 µM

**Q.** What about the TGI (KM12 colon) of the same compound?
**A.** > 100 µM

**Q.** What about the TGI (SK-MEL-2 melanoma) of the same compound?
**A.** > 100 µM

**Q.** And the TGI (CCRF-CEM leukemia)?
**A.** > 100 µM

**Q.** What about the TGI (SNB-78 CNS) of the same compound?
**A.** > 100 µM

**Q.** What about the TGI (LOX IMVI melanoma) of the same compound?
**A.** > 100 µM

**Q.** What about the TGI (HCT-15 colon) of the same compound?
**A.** > 100 µM

**Q.** What about the TGI (HOP-92 NSCLC) of the same compound?
**A.** > 100 µM

**Q.** What about the TGI (NCI-H226 lung) of the same compound?
**A.** > 100 µM

**Q.** What about the TGI (SK-MEL-28 melanoma) of the same compound?
**A.** > 100 µM

**Q.** What about the TGI (A498 renal) of the same compound?
**A.** > 100 µM

**Q.** And the TGI (COLO 205 colon)?
**A.** > 100 µM

**Q.** And the TGI (HOP-62 NSCLC)?
**A.** > 100 µM

**Q.** What about the TGI (SNB-75 CNS) of the same compound?
**A.** > 100 µM

**Q.** What about the TGI (SF-295 CNS) of the same compound?
**A.** > 100 µM

**Q.** And the TGI (NCI-H522 lung)?
**A.** > 100 µM

**Q.** And the TGI (MOLT-4 leukemia)?
**A.** > 100 µM

**Q.** What about the TGI (KM20L2 colon) of the same compound?
**A.** > 100 µM

**Q.** What about the TGI (HCC-2998 colon) of the same compound?
**A.** > 100 µM

**Q.** What about the TGI (HCT-116 colon) of the same compound?
**A.** > 100 µM

**Q.** And the TGI (SNB-19 CNS)?
**A.** > 100 µM

**Q.** What about the TGI (CAKI-1 renal) of the same compound?
**A.** > 100 µM
